# Laboratory results from PubChem BioAssay (NCI).
#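 48-hour exposure; five concentrations; linearly interpolated endpoints. GI50 is the concentration that inhibits growth by half. TGI: concentration producing complete growth inhibition.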
# What was measured:
# Test in all cases: NCI-60 cell line screen, 48 h
# ACHN renal = test system: ACHN renal
# CCRF-CEM leukemia = test system: CCRF-CEM leukemia
# HL-60(TB) leukemia = test system: HL-60(TB) leukemia
# MALME-3M melanoma = test system: MALME-3M melanoma
# NCI-H226 lung = test system: NCI-H226 lung
# NCI-H522 lung = test system: NCI-H522 lung
# OVCAR-8 ovarian = test system: OVCAR-8 ovarian
# RXF 393 renal = test system: RXF 393 renal
# SF-295 CNS = test system: SF-295 CNS
# SK-MEL-2 melanoma = test system: SK-MEL-2 melanoma
SMILES,GI50 (ACHN renal),TGI (ACHN renal),GI50 (CCRF-CEM leukemia),TGI (CCRF-CEM leukemia),GI50 (HL-60(TB) leukemia),TGI (HL-60(TB) leukemia),GI50 (MALME-3M melanoma),TGI (MALME-3M melanoma),GI50 (NCI-H226 lung),TGI (NCI-H226 lung),GI50 (NCI-H522 lung),TGI (NCI-H522 lung),GI50 (OVCAR-8 ovarian),TGI (OVCAR-8 ovarian),GI50 (RXF 393 renal),TGI (RXF 393 renal),GI50 (SF-295 CNS),TGI (SF-295 CNS),GI50 (SK-MEL-2 melanoma),TGI (SK-MEL-2 melanoma)
C=CCNCCCN1C(=O)c2ccc3c4c(ccc(c24)C1=O)C(=O)N(CCCNCC=C)C3=O,0.268 µM,4.38 µM,0.349 µM,3.78 µM,0.383 µM,1.41 µM,0.258 µM,0.617 µM,0.292 µM,0.987 µM,0.336 µM,1.34 µM,0.312 µM,2.11 µM,0.344 µM,1.52 µM,0.2 µM,0.955 µM,0.364 µM,1.7 µM
Cc1ccc(NC(=O)c2cc3ccccc3c(N=Nc3ccccc3O)c2O)c(C)c1,–,16.4 µM,–,4.75 µM,–,4.09 µM,–,5.87 µM,–,13.1 µM,–,2.61 µM,–,3.7 µM,–,19.4 µM,–,10.5 µM,–,14.9 µM
CN1CCN(c2nc(NCCCCNc3ccnc4cc(Cl)ccc34)c3ccccc3n2)CC1,2.52 µM,7.32 µM,2.62 µM,93.9 µM,1.87 µM,4.23 µM,1.93 µM,3.61 µM,20.7 µM,45.8 µM,2.82 µM,9.32 µM,4.25 µM,20.1 µM,1.74 µM,3.45 µM,1.84 µM,3.73 µM,2.11 µM,4.48 µM
COC1(O)C(=O)c2ccccc2OC1(OC)c1ccccc1 (stereo not given),–,> 100 µM,–,> 100 µM,–,> 100 µM,–,> 100 µM,–,> 100 µM,–,> 100 µM,–,> 100 µM,–,> 100 µM,–,> 100 µM,–,> 100 µM
C=C1C(=O)OC2C1CC[C@H](C)C13OC(=O)CC1[C@@]23C (stereo not given in full),–,> 100 µM,–,> 100 µM,–,> 100 µM,–,> 100 µM,–,> 100 µM,–,> 100 µM,–,> 100 µM,–,> 100 µM,–,> 100 µM,–,> 100 µM
CCc1cccc2c3c(sc12)C(c1ccc(Cl)cc1)C(C#N)=C(N)O3 (stereo not given),0.622 µM,14.3 µM,0.391 µM,21.4 µM,0.355 µM,9.48 µM,0.712 µM,9.9 µM,0.881 µM,9.43 µM,0.338 µM,4.39 µM,0.869 µM,11 µM,0.258 µM,0.976 µM,0.306 µM,1.17 µM,1.25 µM,19.2 µM
NNC(=O)CCC(=O)Nc1cc(Cl)c(Cl)cc1Cl,–,> 100 µM,–,> 100 µM,–,> 100 µM,–,> 100 µM,–,> 100 µM,–,> 100 µM,–,> 100 µM,–,> 100 µM,–,> 100 µM,–,> 100 µM
O=C1/C(=C/c2ccc3c(c2)OCO3)CCC1CN1CCOCC1 (stereo not given),–,24 µM,–,5.91 µM,–,3.99 µM,–,22.6 µM,–,33.8 µM,–,2.78 µM,–,21.4 µM,–,24.7 µM,–,33.7 µM,–,28.6 µM
